Measurements published in patent US4994441A, “Dental anti-plaque and anti-caries agent” (priority 1987, dated 1991).

Tests used:
S. sanguis OMZ 9 = settings: for Inhibitory effect on adhesion to plastic tubes (in words): preliminary tests; for Inhibition (%) of bacterial adhesion to plastic tubes: 1 mg/ml, 4 h
A. viscosus OMZ 105 [1] = settings: for Inhibitory effect on adhesion to plastic tubes (in words): preliminary tests; for Inhibition (%) of bacterial adhesion to plastic tubes: 1 mg/ml, 4 h
A. naeslundii ATCC 12104 = settings: A. naeslundii ATCC 12104, no control of growth phase; desialylated human erythrocytes (A+); none = no inhibition up to 20 mg/ml
A. viscosus OMZ 105 [2] = test system: A. viscosus OMZ 105
S. mutans OMZ 176 = experiment: Inhibition of bacterial adhesion to plastic (polypropylene) tubes; settings: 1 mg/ml, 4 h

| Compound | Inhibitory effect on adhesion to plastic tubes (in words) (S. sanguis OMZ 9) | Inhibitory effect on adhesion to plastic tubes (in words) (A. viscosus OMZ 105 [1]) | Inhibition (%) of bacterial adhesion to plastic tubes (S. sanguis OMZ 9) [%] | Inhibition (%) of bacterial adhesion to plastic tubes (A. viscosus OMZ 105 [1]) [%] | Inhibition (%) of bacterial adhesion to plastic tubes (S. mutans OMZ 176) [%] | other results |
| --- | --- | --- | --- | --- | --- | --- |
| O=C[C@H](O)[C@@H](O)[C@H](O)[C@H](O)CO [glucose] | nonactivity | nonactivity | – | – | – | – |
| OC[C@H]1O[C@@H](O[C@H]2[C@H](O)[C@@H](O)C(O)O[C@@H]2CO)[C@H](O)[C@@H](O)[C@H]1O (some centres unmarked) [Lactose] | – | – | – | – | – | Minimum concentration resulting in complete inhibition of hemagglutination (A. naeslundii ATCC 12104): none; Minimum concentration resulting in complete inhibition of hemagglutination (A. viscosus OMZ 105 [2]; A. viscosus OMZ 105, no control of growth phase, desialylated human erythrocytes (A+), none = no inhibition up to 20 mg/ml): none; Concentration expressed in galactoside equivalents/ml (minimum concentration resulting in complete inhibition of hemagglutination) (A. viscosus OMZ 105 [2]; A. viscosus OMZ harvested in the exponential phase): > 10 mg/mL; Concentration expressed in dry weight/ml (minimum concentration resulting in complete inhibition of hemagglutination) (A. viscosus OMZ 105 [2]; A. viscosus OMZ harvested in the exponential phase, none = no inhibition up to 20 mg/ml): none |
| NCC(=O)O [glycine] | nonactivity | nonactivity | – | – | – | – |
| COC1OC(CO)C(O)C(O)C1O (stereo not drawn) [Methyl α annoside] | – | – | 11 | 10 | 3 | – |
| Polylysine | – | – | 12 | 46 | 30 | – |
| Polyglutamic acid | – | – | 6 | 22 | 20 | – |
